Test results published in patent US20230116972A1, “CD38 MODULATORS AND METHODS OF USE THEREOF” (Cytokinetics, Inc., priority 2021, published 2023).

Assays:
human CD38 = biological target: T1, human CD38 (Homo sapiens, UniProt P28907); experiment: human recombinant CD38 enzyme assay (hydrolysis of NAD+); type: biochemical; details: human recombinant CD38, 0.4 nM enzyme, 62.5 μM NAD+; read-out: hCD38 BioChem IC50
T1 sequence (P28907 1-300): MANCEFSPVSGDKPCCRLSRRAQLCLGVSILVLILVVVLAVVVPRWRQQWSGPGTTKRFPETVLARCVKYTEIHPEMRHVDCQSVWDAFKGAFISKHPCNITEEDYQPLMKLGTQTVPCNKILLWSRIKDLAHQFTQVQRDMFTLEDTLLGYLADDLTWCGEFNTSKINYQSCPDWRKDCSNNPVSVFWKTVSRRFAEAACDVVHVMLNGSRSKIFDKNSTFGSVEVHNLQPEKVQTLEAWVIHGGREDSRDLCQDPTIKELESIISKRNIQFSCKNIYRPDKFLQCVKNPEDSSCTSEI
Description: (§1) Compounds described herein were assayed for their ability to inhibit the hydrolysis of NAD+ by the protein CD38. The human and mouse recombinant enzyme assays measure the inhibition of the enzyme activity by compounds using recombinant enzymes and substrates in a buffered cell-free system. The assay conditions closely mimic cellular environments. Dose responses were measured using an assay to detect the hydrolysis of NAD+. All experiments were performed in the 384-well format. […] Enzyme reactions were initiated with the addition of 10 μL of a solution containing NAD+ substrate. Subsequent detection of remaining NAD+ was determined by first converting NAD+ to NADH using alcohol dehydrogenase, then using the resulting NADH to reduce resazurine to the fluorescent product resorufin. […] Following an incubation of 60 min at ambient temperature, 10 μL of 120 mM ethanol+20 U/ml alcohol dehydrogenase+30 mM semicarbazide+0.03 mM CD38 inhibitor in 50 mM HEPES, pH 7.5, 0.2 mg/ml BSA, was added and incubated at ambient temperature for 15 min. Then 10 μl 0.32 mM NaOH was added to stop the ADH reaction (plates incubated at ambient temperature for 15 min), followed by 30 μL of 0.05 mM resazurine+1000 mU/ml Diaphorase in 200 mM Tris-HCl, pH 7.7 for 15 min at ambient temperature. The plates were read for fluorescence (Excitation/Emission=540 nm/590 nm) using an EnVision plate reader. […] Note that, in Table 4, the “Compound No” corresponds to the compound numbers in Table 1.

mouse CD38 = biological target: T2, mouse CD38 (Mus musculus, UniProt P56528); experiment: mouse recombinant CD38 enzyme assay (hydrolysis of NAD+); type: biochemical; details: read-out: mCD38 BioChem IC50
T2 sequence (P56528 1-304): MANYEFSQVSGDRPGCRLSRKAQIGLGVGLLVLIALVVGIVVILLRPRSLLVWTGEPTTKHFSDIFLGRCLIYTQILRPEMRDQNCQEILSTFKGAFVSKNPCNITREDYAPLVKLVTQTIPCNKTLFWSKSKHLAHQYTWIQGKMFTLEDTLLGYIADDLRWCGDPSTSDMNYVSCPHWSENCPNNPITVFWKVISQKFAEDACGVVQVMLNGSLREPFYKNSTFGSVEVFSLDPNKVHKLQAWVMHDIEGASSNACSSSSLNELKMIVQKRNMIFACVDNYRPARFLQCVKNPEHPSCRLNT
Description: as §1

Row | IC50 (human CD38) [nM] | IC50 (mouse CD38) [nM] | Compound
1 | 28.7 | 13.5 | Cc1cnc(-c2cncn2C)nc1C(=O)N[C@H]1CC[C@H](OC(F)F)CC1 [Compound 335, N-((1r,4r)-4-(difluoromethoxy)cyclohexyl)-5-methyl-2-(1-methyl-1H-imidazol-5-yl)pyrimidine-4-carboxamide]
2 | 12.3 | 1.3 | Cn1cncc1-c1nc(C(=O)Nc2ccc(C(C)(C)O)nc2)cc(C2CCC(F)(F)CC2)n1 [Compound 336, 6-(4,4-difluorocyclohexyl)-N-(6-(2-hydroxypropan-2-yl)pyridin-3-yl)-2-(1-methyl-1H-imidazol-5-yl)pyrimidine-4-carboxamide]
3 | 10.4 | 1.9 | Cn1cncc1-c1nc(C(=O)N[C@H]2CC[C@H](OCC(F)(F)F)CC2)cc(C2CCOCC2)n1 [Compound 337, 2-(1-methyl-1H-imidazol-5-yl)-6-(tetrahydro-2H-pyran-4-yl)-N-((1r,4r)-4-(2,2,2-trifluoroethoxy)cyclohexyl)pyrimidine-4-carboxamide]
4 | 1.8 | 1.5 | Cn1cncc1-c1ncc(F)c(C(=O)Nc2ccc(OC(F)F)nc2)n1 [Compound 338, N-(6-(difluoromethoxy)pyridin-3-yl)-5-fluoro-2-(1-methyl-1H-imidazol-5-yl)pyrimidine-4-carboxamide]
5 | 17.3 | 2 | Cn1cncc1-c1nc(C(=O)N[C@H]2CC[C@H](OCC(F)(F)F)CC2)cc(C2CCC(F)(F)CC2)n1 [Compound 339, 6-(4,4-difluorocyclohexyl)-2-(1-methyl-1H-imidazol-5-yl)-N-((1r,4r)-4-(2,2,2-trifluoroethoxy)cyclohexyl)pyrimidine-4-carboxamide]
6 | 11.9 | 6.3 | Cn1cncc1-c1ncc(F)c(C(=O)N[C@H]2CC[C@H](OC(F)(F)F)CC2)n1 [Compound 340, 5-fluoro-2-(1-methyl-1H-imidazol-5-yl)-N-((1r,4r)-4-(trifluoromethoxy)cyclohexyl)pyrimidine-4-carboxamide]
7 | 8.7 | 3.8 | Cn1cncc1-c1ncc(F)c(C(=O)N[C@H]2CC[C@H](OC(F)F)CC2)n1 [Compound 341, N-((1r,4r)-4-(difluoromethoxy)cyclohexyl)-5-fluoro-2-(1-methyl-1H-imidazol-5-yl)pyrimidine-4-carboxamide]
8 | 19.9 | 2.9 | Cn1cncc1-c1nc(C(=O)Nc2ccc(OC(F)F)nc2)cc(C2CCC(F)(F)CC2)n1 [Compound 342, 6-(4,4-difluorocyclohexyl)-N-(6-(difluoromethoxy)pyridin-3-yl)-2-(1-methyl-1H-imidazol-5-yl)pyrimidine-4-carboxamide]
9 | 24.3 | 13.6 | Cn1cncc1-c1ccnc(C(=O)N[C@H]2CC[C@H](OCC(F)(F)F)CC2)n1 [Compound 343, 4-(1-methyl-1H-imidazol-5-yl)-N-((1r,4r)-4-(2,2,2-trifluoroethoxy)cyclohexyl)pyrimidine-2-carboxamide]
10 | 417 | 46.9 | COCCO[C@H]1CC[C@H](NC(=O)c2nccc(-c3cncn3C)n2)C1 [Compound 344, N-((1S,3S)-3-(2-methoxyethoxy)cyclopentyl)-4-(1-methyl-1H-imidazol-5-yl)pyrimidine-2-carboxamide]
11 | 3.3 | 1 | Cn1cncc1-c1nc(C(=O)Nc2ccc(C(F)(F)F)nc2)cc(C2CC3(COC3)C2)n1 [Compound 345, 2-(1-methyl-1H-imidazol-5-yl)-6-(2-oxaspiro[3.3]heptan-6-yl)-N-(6-(trifluoromethyl)pyridin-3-yl)pyrimidine-4-carboxamide]
12 | 109 | 30.1 | CO[C@H]1CC[C@H](NC(=O)c2nc(C(F)F)cc(-n3ccnc3)n2)CC1 [Compound 346, 4-(difluoromethyl)-6-(1H-imidazol-1-yl)-N-((1r,4r)-4-methoxycyclohexyl)pyrimidine-2-carboxamide]
13 | 81.9 | 6.2 | Cn1cncc1-c1cc(C(F)F)nc(C(=O)N[C@H]2CC[C@H](O)CC2)n1 [Compound 347, 4-(difluoromethyl)-N-((1r,4r)-4-hydroxycyclohexyl)-6-(1-methyl-1H-imidazol-5-yl)pyrimidine-2-carboxamide]

Further lines, the molecule ahead of its results:

Row | Compound | IC50 (human CD38) [nM] | IC50 (mouse CD38) [nM]
14 | Cn1cncc1-c1ncc(Cl)c(C(=O)N[C@H]2CC[C@H](OC(F)F)CC2)n1 [Compound 323, 5-chloro-N-((1r,4r)-4-(difluoromethoxy)cyclohexyl)-2-(1-methyl-1H-imidazol-5-yl)pyrimidine-4-carboxamide] | 22.1 | 10.6
15 | Cn1cncc1-c1nc(C(=O)N[C@H]2CC[C@H](OC(F)F)CC2)cc(C2CCC(F)(F)CC2)n1 [Compound 324, 6-(4,4-difluorocyclohexyl)-N-((1r,4r)-4-(difluoromethoxy)cyclohexyl)-2-(1-methyl-1H-imidazol-5-yl)pyrimidine-4-carboxamide] | 15.9 | 2.1
16 | Cn1cncc1-c1ncc(Cl)c(C(=O)N[C@H]2CC[C@H](OC(F)(F)F)CC2)n1 [Compound 325, 5-chloro-2-(1-methyl-1H-imidazol-5-yl)-N-((1r,4r)-4-(trifluoromethoxy)cyclohexyl)pyrimidine-4-carboxamide] | 29.8 | 19.3
17 | Cc1cnc(-c2cncn2C)nc1C(=O)Nc1ccc(C(F)(F)F)nc1 [Compound 326, 5-methyl-2-(1-methyl-1H-imidazol-5-yl)-N-(6-(trifluoromethyl)pyridin-3-yl)pyrimidine-4-carboxamide] | 3.4 | 1.4
18 | CO[C@H]1CC[C@H](NC(=O)c2cc(C3CC4(COC4)C3)nc(-c3cncn3C)n2)CC1 [Compound 327, N-((1r,4r)-4-methoxycyclohexyl)-2-(1-methyl-1H-imidazol-5-yl)-6-(2-oxaspiro[3.3]heptan-6-yl)pyrimidine-4-carboxamide] | 22.1 | 2.6
19 | CO[C@H]1CC[C@H](NC(=O)c2nc(-c3cncn3C)ncc2C)CC1 [Compound 328, N-((1r,4r)-4-methoxycyclohexyl)-5-methyl-2-(1-methyl-1H-imidazol-5-yl)pyrimidine-4-carboxamide] | 41.4 | 11.5
20 | CO[C@H]1CC[C@H](NC(=O)c2nc(-c3cncn3C)ncc2Cl)CC1 [Compound 329, 5-chloro-N-((1r,4r)-4-methoxycyclohexyl)-2-(1-methyl-1H-imidazol-5-yl)pyrimidine-4-carboxamide] | 34 | 10.7
21 | Cn1cncc1-c1ccnc(C(=O)Nc2ccc(OC3CCC(F)(F)CC3)nc2)n1 [Compound 330, N-(6-((4,4-difluorocyclohexyl)oxy)pyridin-3-yl)-4-(1-methyl-1H-imidazol-5-yl)pyrimidine-2-carboxamide] | 5 | 9.8
22 | CO[C@H]1CC[C@H](NC(=O)c2cc(C3(O)CCC(F)(F)CC3)nc(-c3cncn3C)n2)CC1 [Compound 331, 6-(4,4-difluoro-1-hydroxycyclohexyl)-N-((1r,4r)-4-methoxycyclohexyl)-2-(1-methyl-1H-imidazol-5-yl)pyrimidine-4-carboxamide] | 26 | 4.7
23 | Cn1cncc1-c1nc(C(=O)Nc2ccc(C(C)(C)O)nc2)cc(C2CCOCC2)n1 [Compound 332, N-(6-(2-hydroxypropan-2-yl)pyridin-3-yl)-2-(1-methyl-1H-imidazol-5-yl)-6-(tetrahydro-2H-pyran-4-yl)pyrimidine-4-carboxamide] | 11 | 1.5
24 | CO[C@H]1CC[C@H](NC(=O)c2nc(-c3cncn3C)ncc2F)CC1 [Compound 333, 5-fluoro-N-((1r,4r)-4-methoxycyclohexyl)-2-(1-methyl-1H-imidazol-5-yl)pyrimidine-4-carboxamide] | 12.8 | 3.4
25 | Cn1cncc1-c1nc(C(=O)N[C@H]2CC[C@H](OC(F)(F)F)CC2)cc(C2CCOCC2)n1 [Compound 334, 2-(1-methyl-1H-imidazol-5-yl)-6-(tetrahydro-2H-pyran-4-yl)-N-((1r,4r)-4-(trifluoromethoxy)cyclohexyl)pyrimidine-4-carboxamide] | 12.4 | 5.4
